Earlier results on two compounds are cited in EP3051247B1, “CHEMICAL CLEANING PROCEDURE FOR HEAT EXCHANGERS” (GD Energy Services S.a.r.l., priority 2013, dated 2015).

For the data set the following is noted: for pKa1: first acid dissociation step (AH3 → AH2^- + H^+; BH2 → BH^- + H^+); for pKa2: second acid dissociation step (AH2^- → AH^2- + H^+; BH^- → B^2- + H^+).

For `O=C(O)CC(O)(CC(=O)O)C(=O)O` [Citric acid], the pKa1 result is “pKa1 = 3.15” and the pKa2 entry is reported as “pKa2 = 4.77”. In addition, where the note is “third acid dissociation step (AH^2- → A^3- + H^+)”, the pKa3 result was “pKa3 = 6.40”.
Turning to `O=C1O[C@H]([C@@H](O)CO)C(O)=C1O` [Ascorbic acid], the pKa1 result is given as “pKa1 = 4.1” and the pKa2 entry is reported as “pKa2 = 11.4”.
